Reference: patent US6391902B1, “Substituted benzofuranoindoles and indenoindoles as novel potassium channel openers” (American Home Products Corporation, priority 1998, dated 2002)
Marks after values point to notes of the source that are not given here.

What was measured:
[1] = test system: Bladder Tissue; assay: Relaxation of KCl-stimulated isolated rat bladder strips (contractile activity); design: species or system Sprague-Dawley rats; settings: for inhibition at 30 µM: read-out: Bladder Tissue I = Percent inhibition at 30 μM
Description: Sprague-Dawley rats (150-200 g) are rendered unconscious by CO2 asphyxiation and then euthanized by cervical dislocation. The bladder is removed into warm (37° C.) physiological salt solution (PSS) of the following composition (mM): NaCl, 118.4; KCl, 4.7; CaCl2, 2.5; […]; NaHCO3, 24.9; KH2PO4, 1.2; glucose, 11.1; EDTA, 0.023; gassed with 95% O2; […]; pH 7.4. The bladder is opened and then cut into strips 1-2 mm in width and 7-10 mm in length. The strips are subsequently suspended in a 10 mL tissue bath under an initial resting tension of 1.5 g. The strips are held in place by two surgical clips one of which is attached to a fixed hook while the other is attached to an isometric force transducer. […] The carbachol is then washed out and the tissue allowed to relax to its resting level of activity. Following a further 30 min period of recovery an additional 15 mM KCl re introduced into the tissue bath. […] Following stabilization of this enhanced level of contractile activity, incremental increases in the concentration of test compound or vehicle are introduced into the tissue bath. Contractile activity is measured for each compound or vehicle concentration during the last minute of a 30 minute challenge.

[2] = test system: Aorta Tissue; assay: Relaxation of KCl-contracted isolated rat thoracic aortic rings (contractile force); design: species or system Sprague-Dawley rats; settings: for IC50: Rattus norvegicus; for Ratio Aorta IC50 / Bladder IC50: aorta IC50 divided by bladder IC50, tissue selectivity
Description: The smooth muscle (aorta) relaxing activity of the compounds of this ivention was established in accordance with standard pharmaceutically accepted test procedures with representative compounds as follows.
Male Sprague-Dawley rats (150-200 g) are rendered unconscious by CO2 asphyxiation and then euthanized by cervical dislocation. The thoracic aorta is removed into warm (37° C.) physiological sial solution (PSS) of the following composition (mM): NaCl, 118.4; KCl, 4.7; CaCl2, 2.5; MgSO4.7H2O, 1.2; NaHCO3, 24.9; KH2PO4, 1.2; glucose, 11.1; EDTA, 0.023; gassed with 95% O2/5% CO2; pH 7.4. The aorta is cleaned of fat and loose adventitia and cut into rings 3-4 mm in width. The rings are subsequently suspended between two stainless steel wire tissue holders in a 10 mL tissue bath. One wire tissue holder is attached to a fixed hook while the other is attached to an isometric force transducer. Resting tension is set at 1 g. The tissues are to recover for a period of 60 min prior to beginning the experiment. Tissues are challenged with PSS containing 25 mM KCl to elicit a contracture. The tissues are then washed repeatedly with fresh PSS over a period of 30 min and allowed to recover to baseline tension. PSS containing 30-35 mM KCl is then introduced into the tissue bath to evoke a contracture that is allowed to stabilize for not less than 45 min. (Other stimuli such as norepinephrine, PGF2a, histamine, angiotensin II, endothelin or PSS containing 80 mM KCl may also be used to evoke a contracture as necessary). Increasing concentrations of test compound or vehicle are then added to the tissue bath in a cumulative fashion.
Isometric force development by the aortic rings is measured using a force transducer and recorded on a polygraph. The percentage inhibition of contractile force evoked by each concentration of a given test compound is used to generate a concentration-response curve. […] [Log concentration versus response curves are approximately linear between 20% and 80% of the maximum response. As such, the IC50 concentration of the drug is determined by linear regression analysis (where x=log concentration and y=% inhibition) of the data points in the 20% to 80% region of the curve.] […] Data collected from 2 animals are averaged for primary screens.

[3] = rat bladder strips, additional 15 mM KCl, 30 μM test compound

For `O.O.O=C(O)c1cccc2c1[nH]c1c3cc([N+](=O)[O-])ccc3oc21` (hydrate or solvate) [Example 4, 8-Nitro-10H-benzo[4,5]furo[3,2-b]indole-1-carboxylic acid dihydrate], the melting point was 325 °C (dec.).
With `N#Cc1cccc2c1[nH]c1c3cc(Br)ccc3oc21.O` (hydrate or solvate) [Example 10, 8-Bromo-10H-benzo[4,5]furo[3,2-b]indole-1-carbonitrile hydrate] the melting point was 277 to 280 °C (dec.).
In the case of `O=C(O)c1cccc2c1[nH]c1c3cc(Br)ccc3oc21` [Example 1, 8-Bromo-10H-benzo[4,5]furo[3,2-b]indole-1-carboxylic acid], the IC50 ([1]; Rattus norvegicus, 0.5 h) is reported as 15.1 ± 4.7 µM, the melting point is reported as 312 to 313 °C and the IC50 [2] is reported as 119 ± 21.8 µM. For the same molecule, the “Ratio Aorta IC50 / Bladder IC50” value [2] was 7.9.
In the case of `O=C(O)c1cccc2c1[nH]c1c3cc(I)ccc3oc21` [Example 2, 8-Iodo-10H-benzo[4,5]furo[3,2-b]indole-1-carboxylic acid], the IC50 ([1]; Rattus norvegicus, 0.5 h) is reported as 6.1 ± 3 µM, the melting point is reported as 297 °C (dec.) and the IC50 [2] is reported as 128 ± 16.9 µM. The “Ratio Aorta IC50 / Bladder IC50” value [2] was 21.
In the case of `O=C(O)c1cccc2c1[nH]c1c3cc(Cl)ccc3oc21` [Example 3, 8-Chloro-10H-benzo[4,5]furo[3,2-b]indole-1-carboxylic acid], the IC50 ([1]; Rattus norvegicus, 0.5 h) is reported as 5.8 ± 1.5 µM, the melting point is reported as 303 °C (dec.) and the IC50 [2] is reported as 268 ± 82.3 µM. The “Ratio Aorta IC50 / Bladder IC50” value [2] was 46.2.
With `O.O.O=C(O)c1cccc2c1[nH]c1c3cc([N+](=O)[O-])ccc3oc21` [Example 4, 8-Nitro-10H-benzo[4,5]furo[3,2-b]indole-1-carboxylic acid dihydrate] the IC50 ([1]; Rattus norvegicus, 0.5 h) was 6.3 ± 2.6 µM, the IC50 [2] was 125 ± 13.8 µM and the “Ratio Aorta IC50 / Bladder IC50” value [2] was 19.8.
In the case of `NC(=O)c1cccc2c1[nH]c1c3cc(Br)ccc3oc21` [Example 5, 8-Bromo-10H-benzo[4,5]furo[3,2-b]indole-1-carboxylic acid amide], the inhibition at 30 µM [1, 3] is reported as 13.5% and the melting point is reported as 300 to 301 °C.
For `COC(=O)c1cccc2c1[nH]c1c3cc(Br)ccc3oc21` [Example 6, 8-Bromo-10H-benzo[4,5]furo[3,2-b]indole-1-carboxylic acid methyl ester], the inhibition at 30 µM [1, 3] was 31% and the melting point was 204 to 205 °C.
For `OCc1cccc2c1[nH]c1c3cc(Br)ccc3oc21` [Example 7, (8-Bromo-10H-benzo[4,5]furo[3,2-b]indol-1-yl)-methanol], the melting point was 218 to 219 °C.
Work on `CN(O)C(=O)c1cccc2c1[nH]c1c3cc(Br)ccc3oc21` [Example 8, 8-Bromo-10H-benzo[4,5]furo[3,2-b]indole-1-carboxylic acid hydroxy-methyl amide] yielded an IC50 ([1]; Rattus norvegicus, 0.5 h) of 19.8 ± 4.02 µM, a melting point of 174 to 175 °C and an IC50 [2] of 8.1 ± 3.6 µM. For the same molecule, the “Ratio Aorta IC50 / Bladder IC50” value [2] was 0.41.
For `O=Cc1cccc2c1[nH]c1c3cc(Br)ccc3oc21` [Example 9, 8-Bromo-10H-benzo[4,5]furo[3,2-b]indole-1-carbaldehyde], the inhibition at 30 µM [1, 3] was 19% and the melting point was 280 to 281 °C.
With `N#Cc1cccc2c1[nH]c1c3cc(Br)ccc3oc21` [Example 10, 8-Bromo-10H-benzo[4,5]furo[3,2-b]indole-1-carbonitrile hydrate] the inhibition at 30 µM [1, 3] was 10.1%.
With `Brc1ccc2oc3c4cccc(-c5nnn[nH]5)c4[nH]c3c2c1` [Example 11, 8-Bromo-1-(1H-tetrazol-5-yl)-10H-benzo[4,5]furo[3,2-b]indole] the inhibition at 30 µM [1, 3] was 30.9% and the melting point was 275 to 277 °C (dec.).
With `CC(NC(=O)c1cccc2c1[nH]c1c3cc(Br)ccc3oc21)C(C)(C)C` (stereo not drawn) [Example 12, 8-Bromo-10H-benzo[4,5]furo[3,2-b]indole-1-carboxylic acid (1,2,2-trimethyl-propyl)-amide] the IC50 ([1]; Rattus norvegicus, 0.5 h) was 13.9 ± 0.95 µM, the melting point was 173 to 175 °C and the IC50 [2] was 25 ± 3.9 µM. The “Ratio Aorta IC50 / Bladder IC50” value [2] was 1.8.
With `CCC(C)(C)NC(=O)c1cccc2c1[nH]c1c3cc(Br)ccc3oc21` [Example 13, 8-Bromo-10H-benzo[4,5]furo[3,2-b]indole-1-carboxylic acid (1,1-dimethyl-propyl)-amide] the inhibition at 30 µM [1, 3] was 28.5% and the melting point was 242 to 244 °C (dec.).
In the case of `CNC(=O)c1cccc2c1[nH]c1c3cc(Br)ccc3oc21` [Example 14, 8-Bromo-10H-benzo[4,5]furo[3,2-b]indole-1-carboxylic acid methylamide], the inhibition at 30 µM [1, 3] is reported as 4.8% and the melting point is reported as 264 to 265 °C (dec.).
`COC(=O)c1cccc2c3oc4ccc(Br)cc4c3n(C)c12` [Example 15, 8-Bromo-10-methyl-10H-benzo[4,5]furo[3,2-b]indole-1-carboxylic acid methyl ester] showed an inhibition at 30 µM [1, 3] of 4.5% and a melting point of 195 to 196 °C.
With `O=C(O)c1cccc2c1[nH]c1c3ccccc3oc21` [Example 16, 10H-Benzo[4,5]furo[3,2-b]indole-1-carboxylic acid] the IC50 ([1]; Rattus norvegicus, 0.5 h) was 31 ± 6.5 µM and the melting point was 279 to 280 °C (dec.).
Work on `O=C(O)c1cccc2c1Cc1c-2[nH]c2ccc(I)cc12` [Example 17, 8-Iodo-5,10-dihydro-indeno[1,2-b]indole-1-carboxylic acid 0.6 hydrate] yielded an IC50 ([1]; rat bladder strips, additional 15 mM KCl, 50% inhibition of pre-drug contractile activity, 30 minute challenge) of 10.1 ± 3.2 µM.
With `NS(=O)(=O)c1ccc2[nH]c3c(c2c1)Cc1c(C(=O)O)cccc1-3.NS(=O)(=O)c1ccc2[nH]c3c(c2c1)Cc1c(C(=O)O)cccc1-3.O` [Example 18, 8-Sulfamoyl-5,10-dihydro-indeno[1,2-b]indole-1-carboxylic acid hemi-hydrate] the “Bladder Tissue I = Percent inhibition at 30 μM” value [1, 3] was “I = 5.2%*”.
For `O=C(O)c1cccc2c1Cc1c-2[nH]c2ccc(F)cc12` [Example 19, 8-Fluoro-5,10-dihydro-indeno[1,2-b]indole-1-carboxylic acid], the IC50 ([1]; Rattus norvegicus, 0.5 h) was 12.5 ± 5 µM, the melting point was > 300 °C and the IC50 [2] was 46.6 ± 18.7 µM. The “Ratio Aorta IC50 / Bladder IC50” value [2] was 3.74.
With `O=C(O)c1cccc2c1Cc1c-2[nH]c2ccc(Cl)cc12` [Example 20, 8-Chloro-5,10-dihydro-indeno[1,2-b]indole-1-carboxylic acid] the IC50 ([1]; Rattus norvegicus, 0.5 h) was 22.6 ± 1.8 µM and the melting point was > 300 °C.
In the case of `O=C(O)c1cccc2c1Cc1c-2[nH]c2ccc(OC(F)(F)F)cc12` [Example 21, 8-Trifluoromethoxy-5,10-dihydro-indeno[1,2-b]indole-1-carboxylic acid], the IC50 ([1]; Rattus norvegicus, 0.5 h) is reported as 15.4 ± 4.8 µM and the melting point is reported as 256 to 265 °C (dec.).
`CCOC(=O)c1cccc2c1Cc1c-2[nH]c2ccc(Cl)cc12` [Example 22, 8-Chloro-5,10-dihydro-indeno[1,2-b]indole-1-carboxylic acid ethyl ester] showed an inhibition at 30 µM [1, 3] of 8% and a melting point of 202 to 204 °C.
With `CCOC(=O)c1cccc2c1Cc1c-2[nH]c2ccc(Br)cc12` [Example 23, 8-Bromo-5,10-dihydro-indeno[1,2-b]indole-1-carboxylic acid ethyl ester] the inhibition at 30 µM [1, 3] was 20% and the melting point was 198 to 200 °C.
For `O=C(O)c1cccc2c1Cc1c-2[nH]c2ccc(Br)cc12` [Example 25, 8-Bromo-5,10-dihydro-indeno[1,2-b]indole-1-carboxylic acid], the IC50 ([1]; Rattus norvegicus, 0.5 h) was 4.4 ± 0.95 µM, the melting point was 328 to 330 °C (dec.) and the IC50 [2] was 110 ± 12.4 µM. The “Ratio Aorta IC50 / Bladder IC50” value [2] was 25.
With `O=C(O)c1cccc2c3c([nH]c12)-c1cc(Br)ccc1C3` [Example 26, 3-Bromo-5,10-dihydro-indeno[1,2-b]indole-6-carboxylic acid] the melting point was 245 to 247 °C (dec.) and the IC50 [2] was 210 ± 45 µM.
